Experimental data reported in US6696076B2, “Immune response modifier compounds for treatment of TH2 mediated and related diseases” (3M Innovative Properties Company, priority 1996, dated 2004).

How the values were obtained:
[1] = tested on: sephadex-induced eosinophilia in the lung; test: Sephadex-induced lung eosinophilia in rats (EPO assay); assay type: in vivo; conditions: rat; for dose capable of inhibiting sephadex-induced eosinophilia in the lung: 60 minutes prior to challenge; for maximum inhibition of sephadex-induced eosinophilia: maximum over doses and routes tested
[2] = tested on: ovalbumin-induced eosinophilia in the lung; test: Ovalbumin-induced lung eosinophilia in the guinea pig (EPO assay); assay type: in vivo; conditions: for maximum inhibition of ovalbumin-induced eosinophilia: maximum over doses and routes tested
[3] = tested on: IL-5 production in spleen cells from OVA-sensitized CFW mice; test: Inhibition of mouse spleen cell production of IL-5 (OVA-stimulated cultures, ELISA); assay type: cell-based; conditions: for IL-5 Concentration: 96 hr
[4] = tested on: antigen induced IL-5 production; test: Antigen induced IL-5 production in vivo (serum, OVA-challenged sensitized mice); parameters: species or system mouse; conditions: for −24 hr IL-5: 24 hrs before OVA challenge; for −24 hr IL-5 / 0 hr IL-5: serum 7 hrs after OVA; for 0 hr IL-5: same time as OVA challenge
Procedure: CFW male mice were sensitized with OVA as described above. 14 days after the last sensitization animals were challenged with 100 μg OVA sc. […] Serum was collected 7 hrs after OVA and analyzed for IL-5 and IFN-γ concentrations. Results are expressed as the mean cytokine concentration ±SEM.

[5] = tested on: antigen-induced eosinophilia in the lung; test: Antigen-induced lung eosinophilia after aerosol OVA challenge (EPO in lung); assay type: in vivo, mouse; conditions: 1 mg/kg, 15 minutes prior to antigen challenge, mice
Procedure: Concentrations of IL-4 were reduced in the BAL of these mice by 43% when compared to animals receiving antigen alone. […] Fourteen days after boosting animals were dosed by nebulization for 30 minutes using a 1% OVA solution. This was repeated on days 17 and 20. Twenty-four hours after the final nebulized dose animals were sacrificed and bronchoalveolar lavage (BAL) was performed using 1.0 ml of PBS containing 1% fetal bovine serum. BAL was stored at −70° C. before analyzed. Lungs were then removed and placed in 0.5% cetrimide, 0.05 M KH2PO4 for homogenization of 4×30 seconds with 30 second cooling intervals between on ice. Centrifugation was then done at 1300 rpm (400×g) for 30 minutes at 4C. Pellet was collected and resuspended in 4 ml 0.5% cetrimide, 0.05 M KH2PO4 buffer. Samples were then frozen until sonication and the EPO assessment. This was followed by sonication for 3×15 seconds with 30 second intervals on ice. […] To start the reaction, 1 ul of 30% hydrogen peroxide was added to the cuvette. The optical density reading was measured spectrophotometrically over a 4 minute time interval at 490 nm in a Beckman Du-64 spectrophotometer.

[6] = tested on: IL-4; test: Antigen-induced IL-4 in BAL after aerosol OVA challenge (ELISA); assay type: in vivo, mouse; conditions: 1 mg/kg, 15 minutes prior to antigen challenge, mice
Procedure: (§1) Concentrations of IL-4 were reduced in the BAL of these mice by 43% when compared to animals receiving antigen alone. […] Fourteen days after boosting animals were dosed by nebulization for 30 minutes using a 1% OVA solution. This was repeated on days 17 and 20. Twenty-four hours after the final nebulized dose animals were sacrificed and bronchoalveolar lavage (BAL) was performed using 1.0 ml of PBS containing 1% fetal bovine serum. BAL was stored at −70° C. before analyzed. Lungs were then removed and placed in 0.5% cetrimide, 0.05 M KH2PO4 for homogenization of 4×30 seconds with 30 second cooling intervals between on ice. Centrifugation was then done at 1300 rpm (400×g) for 30 minutes at 4C. Pellet was collected and resuspended in 4 ml 0.5% cetrimide, 0.05 M KH2PO4 buffer. Samples were then frozen until sonication and the EPO assessment. This was followed by sonication for 3×15 seconds with 30 second intervals on ice. BAL were analyzed by ELISA (Endogen) for IL-5 and IL-4 concentrations with data being presented as the average from 11 animals ±SEM. […] IL-5 concentration is in pg/ml.

[7] = tested on: IL-5; test: Antigen-induced IL-5 in BAL after aerosol OVA challenge (ELISA); assay type: in vivo, mouse; conditions: 1 mg/kg, 15 minutes prior to antigen challenge, mice
Procedure: as §1

[8] = intratracheal instillation, 0.03 mg/kg
[9] = intratracheal instillation, 0.1 mg/kg
[10] = intratracheal instillation, 0.3 mg/kg
[11] = intratracheal instillation, 0.7 mg/kg
[12] = oral administration, 30.0 mg/kg
[13] = aerosol inhalation, 0.003 mg/kg
[14] = intraperitoneal administration, 0.003 mg/kg
[15] = intraperitoneal administration, 0.01 mg/kg
[16] = intraperitoneal administration, 0.03 mg/kg
[17] = intraperitoneal administration, 3.0 mg/kg
[18] = oral administration, 0.001 mg/kg
[19] = oral administration, 0.01 mg/kg

Structure (SMILES): Cc1nc2c(N)nc3ccccc3c2n1CC(C)(C)O [Cmpd 1, 4-amino-α,α,-2-trimethyl-1H-imidazo[4,5-c]quinoline-1-ethanol]
- % Inhibition [1, 8]: 0%
- EPO Concentration in the Lung (χ ± SE) [1, 8]: 0.7107 ± 0.129
- % Inhibition [1, 9]: 9%
- EPO Concentration in the Lung (χ ± SE) [1, 9]: 0.5030 ± 0.089
- % Inhibition [1, 10]: 44%
- EPO Concentration in the Lung (χ ± SE) [1, 10]: 0.3440 ± 0.201
- % Inhibition [1, 11]: 77%
- EPO Concentration in the Lung (χ ± SE) [1, 11]: 0.1967 ± 0.080
- dose capable of inhibiting sephadex-induced eosinophilia in the lung ([1]; intratracheal instillation): ≥ 0.7 mg/kg
- maximum inhibition of sephadex-induced eosinophilia [1]: 95%
- % Inhibition ([1]; oral administration, 0.1 mg/kg): 0%
- EPO Concentration in the Lung (χ ± SE) ([1]; oral administration, 0.1 mg/kg): 0.4240 ± 0.138
- % Inhibition ([1]; oral administration, 0.7 mg/kg): 64%
- EPO Concentration in the Lung (χ ± SE) ([1]; oral administration, 0.7 mg/kg): 0.1497 ± 0.030
- % Inhibition ([1]; oral administration, 1.0 mg/kg): 87%
- EPO Concentration in the Lung (χ ± SE) ([1]; oral administration, 1.0 mg/kg): 0.0780 ± 0.039
- % Inhibition ([1]; oral administration, 5.0 mg/kg): 87%
- EPO Concentration in the Lung (χ ± SE) ([1]; oral administration, 5.0 mg/kg): 0.0790 ± 0.030
- % Inhibition [1, 12]: 95%
- EPO Concentration in the Lung (χ ± SE) [1, 12]: 0.0550 ± 0.013
- dose capable of inhibiting sephadex-induced eosinophilia in the lung ([1]; oral administration): ≥ 0.7 mg/kg
- % Inhibition [2, 13]: 13%
- EPO Concentration in the Lung (χ ± SE) [2, 13]: 0.2620 ± 0.116
- % Inhibition ([2]; aerosol inhalation, 0.01 mg/kg): 44%
- EPO Concentration in the Lung (χ ± SE) ([2]; aerosol inhalation, 0.01 mg/kg): 0.1806 ± 0.035
- dose capable of inhibiting ovalbumin-induced eosinophilia in the lung ([2]; aerosol inhalation, 15 minutes prior to challenge): 0.01 mg/kg
- % Inhibition [2, 14]: 28%
- EPO Concentration in the Lung (χ ± SE) [2, 14]: 0.2435 ± 0.0515
- % Inhibition [2, 15]: 54%
- EPO Concentration in the Lung (χ ± SE) [2, 15]: 0.1690 ± 0.053
- % Inhibition [2, 16]: 54%
- EPO Concentration in the Lung (χ ± SE) [2, 16]: 0.1693 ± 0.060
- % Inhibition [2, 17]: 92%
- EPO Concentration in the Lung (χ ± SE) [2, 17]: 0.0580 ± 0.018
- dose capable of inhibiting ovalbumin-induced eosinophilia in the lung ([2]; intraperitoneal administration, 15 minutes prior to challenge): 0.01 mg/kg
- maximum inhibition of ovalbumin-induced eosinophilia [2]: 92%

Structure (SMILES): CCOCc1nc2c(N)nc3ccccc3c2n1CC(C)(C)O [Cmpd 2, 4-amino-2-ethoxymethyl-α,α-dimethyl-1H-imidazo[4,5-c]quinoline-1-ethanol]
- IL-5 Concentration ([3]; OVA 100 μg/ml + IRM Compound 0.01 μg/ml, mean ±SEM): 125 ± 46 pg/mL
- IL-5 Concentration ([3]; OVA 100 μg/ml + IRM Compound 0.1 μg/ml, mean ±SEM): 25 ± 8 pg/mL
- IL-5 Concentration ([3]; OVA 100 μg/ml + IRM Compound 1 μg/ml, mean ±SEM): 22 ± 3 pg/mL
- IL-5 Concentration ([3]; OVA 100 μg/ml + IRM Compound 10 μg/ml, mean of triplicate cultures ±SEM): 12 ± 2 pg/mL
- inhibition of IL-5 production ([3]; concentrations as low as 0.01 μg/ml): greater than 60%
- inhibition of IL-5 production ([3]; higher concentrations (above 0.01 μg/ml)): 100%
- inhibition of IL-5 production ([4]; doses as low as 0.01 mg/kg po): at least 65%
- −24 hr IL-5 ([4]; free-base po 0.01 mg/kg): 78 pg/mL
- 0 hr IL-5 ([4]; free-base po 0.01 mg/kg): 96 pg/mL
- −24 hr IL-5 ([4]; free-base po 0.1 mg/kg): 49 pg/mL
- 0 hr IL-5 ([4]; free-base po 0.1 mg/kg): 62 pg/mL
- −24 hr IL-5 ([4]; free-base po 1.0 mg/kg): 38 pg/mL
- 0 hr IL-5 ([4]; free-base po 1.0 mg/kg): 40 pg/mL
- −24 hr IL-5 ([4]; free-base po 10.0 mg/kg): 8 pg/mL
- 0 hr IL-5 ([4]; free-base po 10.0 mg/kg): 29 pg/mL
- maximum inhibition of sephadex-induced eosinophilia [1]: 87%
- % Inhibition [1, 18]: 0%
- EPO Concentration in the Lung (χ ± SE) [1, 18]: 0.6775 ± 0.140
- % Inhibition [1, 19]: 32%
- EPO Concentration in the Lung (χ ± SE) [1, 19]: 0.4908 ± 0.070
- % Inhibition ([1]; oral administration, 0.1 mg/kg): 84%
- EPO Concentration in the Lung (χ ± SE) ([1]; oral administration, 0.1 mg/kg): 0.2000 ± 0.060
- % Inhibition ([1]; oral administration, 1.0 mg/kg): 87%
- EPO Concentration in the Lung (χ ± SE) ([1]; oral administration, 1.0 mg/kg): 0.1824 ± 0.060
- dose capable of inhibiting sephadex-induced eosinophilia in the lung ([1]; oral administration): ≥ 0.01 mg/kg
- EPO Concentration in Lung [5]: 352 ± 30 ABS
- inhibition of antigen-induced eosinophilia in the lung (value in parentheses) [5]: 78%
- IL-4 Concentration in BAL [6]: 53 ± 8 pg/mL
- reduction of BAL IL-4 concentration (value in parentheses) [6]: 43%
- reduction of BAL IL-4 concentration (value in parentheses) ([6]; listed as IRM Compound): 42%
- maximum inhibition of ovalbumin-induced eosinophilia [2]: 96%
- % Inhibition [2, 18]: 19%
- EPO Concentration in the Lung (χ ± SE) [2, 18]: 0.1862 ± 0.030
- % Inhibition [2, 19]: 49%
- EPO Concentration in the Lung (χ ± SE) [2, 19]: 0.1181 ± 0.020
- % Inhibition ([2]; oral administration, 0.1 mg/kg): 95%
- EPO Concentration in the Lung (χ ± SE) ([2]; oral administration, 0.1 mg/kg): 0.0118 ± 0.005
- % Inhibition ([2]; oral administration, 1.0 mg/kg): 96%
- EPO Concentration in the Lung (χ ± SE) ([2]; oral administration, 1.0 mg/kg): 0.0084 ± 0.005
- dose capable of inhibiting ovalbumin-induced eosinophilia in the lung ([2]; oral administration, 60 minutes prior to challenge): 0.01 mg/kg
- IL-5 Concentration in BAL [7]: 13 ± 2 pg/mL
- reduction of BAL IL-5 concentration (value in parentheses) [7]: 78%
